Results published in patent publication US9612240B2, “Biomimetic chemical sensors using nanoelectronic readout of olfactory receptors” (The Trustees Of The University Of Pennsylvania, priority 2010, dated 2017).
Where “and” joins values, the source holds several entries; their conditions need not be identical. Equal entries are not always repeated. Entries after “also recorded” stand apart in the source; their conditions may differ. Where two headings read alike, the source gives them in different places.

Key:
mOR203-1 [1] = experiment: Vapor response of mOR-functionalized carbon nanotube transistor; details: for NT device response: FIG. 12A
mOR203-1 [2] = details: mOR203-1 expressed in HEK cells; cited from earlier work
mOR256-17 [3] = biological target: T1, mOR256-17 (Mus musculus, UniProt P23275); details: cited from earlier work
T1 sequence (P23275 1-312): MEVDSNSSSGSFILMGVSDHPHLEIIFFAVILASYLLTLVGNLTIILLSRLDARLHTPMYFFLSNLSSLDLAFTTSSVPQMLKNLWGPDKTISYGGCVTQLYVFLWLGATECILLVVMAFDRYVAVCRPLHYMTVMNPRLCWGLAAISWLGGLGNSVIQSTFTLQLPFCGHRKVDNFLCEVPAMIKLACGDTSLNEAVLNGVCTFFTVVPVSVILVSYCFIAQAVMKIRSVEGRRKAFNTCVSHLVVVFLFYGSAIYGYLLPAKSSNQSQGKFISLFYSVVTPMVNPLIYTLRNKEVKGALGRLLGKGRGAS

[4] = Control vapor response of bare nanotube devices and devices with Ni-NTA and empty digitonin micelles; details: bare NT transistors and devices treated with Ni-NTA and empty digitonin micelles
[5] = test system: mouse olfactory receptor proteins (mORs); experiment: Vapor response of mOR-functionalized NT devices, mOR not specified; type: binding; details: all three mORs
mOR256-17 [6] = biological target: T1, mOR256-17; experiment: Xenopus oocyte expression with robotic electrophysiology; details: mOR 256-17
mOR174-9 = biological target: T2, mOR174-9 (Mus musculus, UniProt Q920P2); experiment: Vapor response of mOR-functionalized carbon nanotube transistor
T2 sequence (Q920P2 1-313): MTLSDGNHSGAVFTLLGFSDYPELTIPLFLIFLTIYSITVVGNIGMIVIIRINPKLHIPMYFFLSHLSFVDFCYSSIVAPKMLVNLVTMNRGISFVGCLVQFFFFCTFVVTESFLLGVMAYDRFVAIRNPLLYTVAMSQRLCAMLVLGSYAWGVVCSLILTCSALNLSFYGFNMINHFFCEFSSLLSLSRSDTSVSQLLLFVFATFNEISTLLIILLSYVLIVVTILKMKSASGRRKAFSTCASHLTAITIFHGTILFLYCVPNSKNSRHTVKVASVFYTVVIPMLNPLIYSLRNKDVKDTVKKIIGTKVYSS

mOR256-17 [7] = biological target: T1, mOR256-17; experiment: Vapor response of mOR-functionalized carbon nanotube transistor, high-speed data acquisition; type: binding; set-up: made in house; host or cells: Sf9 insect cells (Bac-to-Bac, pFastBac HT, Invitrogen); details: cyclohexanone 2250 ppm, mOR 256-17 in nanodiscs
[8] = mOR203-1 in digitonin micelles, single sensor, FIG. 4

CCCCCC(C)=O [2-heptanone]
NT device response with both packaging methods (mOR203-1 [1]; mOR 203-1, surfactant stabilized and nanodisc stabilized): expected response | NT device response (mOR203-1 [1]; mOR203-1 in digitonin micelles): strong response | change in conductance (mOR203-1 [1]; [8]): negative changes in conductance | HEK data response (mOR203-1 [2]): strong response | response of mOR256-17 according to published reports (mOR256-17 [3]): not

CCCCCCC=O [heptanal]
NT device response (mOR203-1 [1]; mOR203-1 in digitonin micelles): lack of response | HEK data response (mOR203-1 [2]): lack of response | response of mOR256-17 according to published reports (mOR256-17 [3]): not

O=C1CCCCC1 [cyclohexanone]
response of control devices without mOR [4]: small response | response of the inventive devices [5]: strong response | oocyte measurement response, in words (mOR256-17 [6]): show a response | NT device response shared by both packaging methods (mOR174-9; mOR 174-9, surfactant stabilized and nanodisc stabilized): response shared between the two packaging methods | response of mOR256-17 according to published reports (mOR256-17 [3]): responds | response time constant, first of double exponential fit (FIG. 11D) (mOR256-17 [7]): 2.06 ± 0.01 s | response time constant, second of double exponential fit (FIG. 11D) (mOR256-17 [7]): 25.51 ± 0.04 s | sensing response time constant, first of double exponential fit (FIG. 3) (mOR256-17 [7]): 9.1 s and 9.08 ± 0.04 s | sensing response time constant, second of double exponential fit (FIG. 3) (mOR256-17 [7]): 41.2 s and 41.2 ± 0.4 s

COC(=O)c1ccccc1 [methyl benzoate]
change in conductance (mOR203-1 [1]): no change in conductance

CCCCCOC(C)=O [n-amyl acetate]
change in conductance (mOR203-1 [1]; [8]): negative changes in conductance

C=CCc1ccc(O)c(OC)c1 [eugenol]
response of control devices without mOR [4]: no change in conductance | change in conductance (mOR203-1 [1]; [8]): positive changes in conductance | NT device response shared by both packaging methods (mOR174-9): expected response | sensing response (change in device current) (mOR174-9): large positive responses; also recorded: large positive sensing response

CC(=O)c1ccccc1 [acetophenone]
NT device response (mOR203-1 [1]; mOR203-1 in digitonin micelles): lack of response | HEK data response (mOR203-1 [2]): lack of response
